According to article PMC7027018 (BMC Chemistry, 2020):

Experiments:
[1] = DPPH radicals scavenging activity; settings: absorbance at 517 nm, 30 min at 37 °C; mean ± SEM, n = 3
Description: Besides their inhibitory action on hMAO the antioxidant potential of synthesized compounds was investigated using 1,1-Diphenyl-2-picrylhydrazyl (DPPH) assay. DPPH was utilized as a stable free radical because free radicals simulate reactive nitrogen and oxygen species distressing neurological structure.
The DPPH method is one of the most proficient techniques to assess the radical-scavenging action by a chain-breaking mechanism. […] DPPH is stable free radical on room temperature, however on acceptance of a hydrogen/electron radical it turns into a stable diamagnetic molecule. The scavenging activity of DPPH radical is assessed by the reduction in its optical density at 5l7 nm, rendered by antioxidants. This phenomenal feature of DPPH is due to the reaction among antioxidant compounds and radicals, leads to the scavenging of the free radical via donated hydrogen. It manifested visually as the color bleaches from purple to yellow. Therefore, DPPH is generally utilized as a substrate to estimate the ant oxidative potential. Different concentrations of around […] (25, 50, 75, and 100) µg ml^−1 of the titled derivatives were suspended in methanol and mixed with 5 ml of a 0.004% methanol solution of DPPH. Subsequently the all dilutions were subjected to incubation for 30 min at 37 °C temperature; finally, at 517 nm the absorbance was measured against a blank. Ascorbic acid was utilized as a reference while and all the experiments were performed in triplicate. […] DPPH free radical scavenging of compounds was calculated as scavenging activity for DPPH (%) = [(Ac − At)/Ac] × 100 Where Ac is the absorbance of the control reaction At is the absorbance of the test compound. The absorbance was measured with UV/Vis Epoch ELISA reader at 517 nm, and antioxidant activity was measured as a decrease in absorbance of DPPH·.

hMAO-B = biological target: T1, hMAO-B (Homo sapiens, UniProt P27338); test: hMAO-B inhibitory activity, Amplex Red continuous fluorometric assay; format: biochemical; settings: for IC50: recombinant hMAO-B, p-tyramine substrate, Amplex Red, mean SEM; for Selectivity index: IC50 (MAO-A)/IC50 (MAO-B)
T1 construct: purchased Sigma-Aldrich; host or cells: insect cells (BTI-TN-5B14), recombinant baculovirus
T1 sequence (P27338 1-520): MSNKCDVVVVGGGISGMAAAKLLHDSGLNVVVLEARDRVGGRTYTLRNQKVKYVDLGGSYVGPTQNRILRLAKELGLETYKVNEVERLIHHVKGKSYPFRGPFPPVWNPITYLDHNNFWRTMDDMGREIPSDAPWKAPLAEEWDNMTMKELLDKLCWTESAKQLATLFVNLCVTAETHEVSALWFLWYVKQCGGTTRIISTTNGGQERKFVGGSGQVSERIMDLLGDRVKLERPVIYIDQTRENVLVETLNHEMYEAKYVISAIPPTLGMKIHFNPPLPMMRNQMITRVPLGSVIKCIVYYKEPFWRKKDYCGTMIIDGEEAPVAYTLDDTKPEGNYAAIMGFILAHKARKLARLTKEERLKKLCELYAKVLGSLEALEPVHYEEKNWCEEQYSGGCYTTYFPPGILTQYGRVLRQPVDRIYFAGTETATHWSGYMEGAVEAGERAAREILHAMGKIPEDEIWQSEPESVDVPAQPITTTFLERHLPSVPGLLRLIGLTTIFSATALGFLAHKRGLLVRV
Method: (§1) The synthesized derivatives were screened for the hMAO-A and hMAO-B inhibitory activities by using an extremely sensitive continuous fluorometric assay containing Amplex Red (10-acetyl-3, 7-dihydroxyphenoxazine) reagent. The enzymatic H2O2 was measured with and without extracts or standards.
(§2) Unless otherwise noted, the analytical grade chemicals required for synthesis and antioxidant activity procured from Sigma Aldrich, Merck, Hi-media Laboratories. The analytical assessment of the synthesized derivatives for hMAO inhibition was measured by their effects on the generation of hydrogen peroxide (H2O2) by p-tyramine (a general substrate for both MAO isoforms), utilizing the Amplex Red MAO assay kit (Sigma USA) and microsomal MAO enzymes extracted by insect cells (BTI-TN-5B14) expressed on recombinant baculovirus containing cDNA probes for MAO isoforms (Sigma-Aldrich USA) were used as source for the two microsomal MAO isoforms. The progress of the reaction was cheeked through thin layer chromatography TLC executed on 0.25 mm pre-coated plates with silica gel procured from Merck, and the spots were envisaged in iodine chamber and UV cabinet, in mobile media TLC-hexane:toluene:ethyl acetate (1:1:1). Melting points were recorded on Sonar melting point apparatus in open capillary tubes. The nuclear magnetic resonance (NMR) spectra 1H NMR and ^13C NMR spectra were determined in DMSO and deuterated CDCl3 respectively on a spectrometer (Model: Bruker Avance II 400 NMR). Coupling constants J are in hertz (Hz) (Additional file 1). Spectral data for infrared (IR) was confirmed on Perkin Elmer FTIR spectrophotometer by using KBr pellets technique.
(§3) Human MAO-A and -B recombinant enzymes (Sigma-Aldrich) 5 mg ml^−1 were pre-aliquoted and placed at − 70 °C. The interactions of the titled compounds with hMAO isoforms were evaluated through a fluorimetric method based on the H2O2 formation rendered by MAO isoforms was identified by utilizing the non-fluorescent, extremely susceptible and stable probe Amplex®-Red reagent (10-acetyl-3,7-dihydroxyphenoxazine), which reacts with H2O2 in the existence of horseradish peroxidase to generate resorufin which is a fluorescent component. […] By the incubation time, the reaction was initiated via the addition of 200 μM Amplex Red reagent, 1 mM p-tyramine (general substrate for both MAO isoforms) and 1 U ml^−1 horseradish peroxidase (HRP). […] The calculation of specific fluorescence emission (used to obtain the final results) was carried out by subtraction of background action that was identified by the cuvettes comprising all reagents except the MAO isoforms, which were changed by a sodium phosphate buffer solution. The preparation of stock solutions and all reagents was done newly each day in deionized water and kept at − 20 °C. Data were processed in Microsoft Excel, to calculate IC50 values.
(§4) The enzymatic kinetic factors maximum reaction rate (Vmax) and Michaelis–Menten constant (Km) were computed by GraphPad Prism Software 6.02 (San Diego, CA, USA). The IC50 values were determined by nonlinear regression best fit model of normalized response with variable slope. Lineweaver–Burk plot was obtained from Michaelis–Menten data. The Michaelis–Menten constant (Km) is the concentration of […]. Relative selectivity (RS) folds were defined by the ratio of hMAO-A IC50 to hMAO-B IC50. The inhibition mechanism was identified by the double reciprocal plot (Lineweaver–Burk curves) by plotting the inverse of the substrate concentration (1/S) as a function against the inverse of initial velocity (1/V).

hMAO-A [2] = biological target: T2, hMAO-A (Homo sapiens, UniProt P21397); test: hMAO-A inhibitory activity, Amplex Red continuous fluorometric assay; format: biochemical; settings: recombinant hMAO-A, p-tyramine substrate, mean SEM
T2 construct: purchased Sigma-Aldrich; host or cells: insect cells (BTI-TN-5B14), recombinant baculovirus
T2 sequence (P21397 1-527): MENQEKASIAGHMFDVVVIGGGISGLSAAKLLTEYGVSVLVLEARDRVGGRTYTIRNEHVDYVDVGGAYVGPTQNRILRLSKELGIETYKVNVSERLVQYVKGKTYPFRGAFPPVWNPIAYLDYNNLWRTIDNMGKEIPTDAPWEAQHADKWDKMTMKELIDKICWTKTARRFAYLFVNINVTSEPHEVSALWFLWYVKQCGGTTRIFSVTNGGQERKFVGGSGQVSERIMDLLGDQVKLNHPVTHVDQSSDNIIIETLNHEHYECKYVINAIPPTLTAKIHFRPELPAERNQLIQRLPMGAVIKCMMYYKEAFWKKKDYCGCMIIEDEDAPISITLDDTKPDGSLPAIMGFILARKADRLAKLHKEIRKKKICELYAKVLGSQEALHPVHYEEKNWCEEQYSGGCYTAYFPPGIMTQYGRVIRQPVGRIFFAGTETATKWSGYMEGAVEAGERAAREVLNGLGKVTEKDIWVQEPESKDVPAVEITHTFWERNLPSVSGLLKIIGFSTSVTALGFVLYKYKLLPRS
Method: as §1, §2, §3, §4

[3] = Hydrogen peroxide scavenging (H2O2) assay; settings: absorption at 230 nm, 10 min incubation, phosphate buffer pH 7.4; mean ± SEM, n = 3
Method: H2O2 is quickly decomposed into oxygen and water and this could generate hydroxyl radicals (OH) that may commence DNA damage in the body and lipid peroxidation. The hydrogen peroxide inhibitory activity of newly synthesized compounds was assessed by the technique illustrated by Nakano and coworkers with some modifications. In phosphate buffer (40 mM pH 7.4) the solution of hydrogen peroxide (40 mM) was prepared and different concentrations of titled compounds (05–80 μg ml^−1) were added to H2O2 solution (2 ml). The concentration of hydrogen peroxide is determined by absorption at 230 nm using a spectrophotometer after 10 min of incubation. Blank reading was noted of phosphate buffer without H2O2. The percentage of hydrogen peroxide inhibition was anticipated by the formula [(Ab − At)/[…]] × 100, where Ab is the absorbance of the control and At is the absorbance of compounds/standard taken as L-ascorbic acid (05–80 μg ml^−1). UV/Vis Epoch ELISA reader was used to measure as a decrease in absorbance in the 96 wells (Table 5).

hMAO-A [4] = biological target: T2, hMAO-A; test: Kinetic study (Lineweaver-Burk) of hMAO-A inhibition; format: biochemical; settings: Lineweaver-Burk plots, p-tyramine substrate
Description: The kinetic study by the Lineweaver–Burk plots, carried out to explicates the type of inhibition by compounds 7, 15 shown their significant inhibitory potential towards hMAO-A and hMAO-B, respectively. Reaction mixtures composing of five diverse concentrations of p-tyramine was used as a common substrate in the presence or absence of compounds.
as §4

SMILES | IC50 [1] [µM] | IC50 (hMAO-B) [µM] | IC50 (hMAO-A [2]) [µM] | IC50 [3] [µM] | Selectivity index (hMAO-B) | type of hMAO-A inhibition (hMAO-A [4])
O=C(/C=C/C=C/c1ccc2c(c1)OCO2)N1CCOCC1 [Compound 9] | 12.35 ± 0.021 | 71.01 ± 0.005 | 22.19 ± 0.07 | 13.98 ± 0.01 |  | 
O=C(/C=C/C=C/c1ccc2c(c1)OCO2)N1CCCCC1 [Piperine, reference compound] | 9.814 ± 0.053 | 17.57 ± 0.037 | 19.01 ± 0.031 | 11.33 ± 0.016 | 1.081 | 
O=C(/C=C/C=C/c1ccc2c(c1)OCO2)Nc1ccc(Br)cc1 [Compound 5] | 5.553 ± 0.007 | 14.19 ± 0.007 | 60.19 ± 0.087 | 8.279 ± 0.017 | 4.241 | 
O=C(/C=C/C=C/c1ccc2c(c1)OCO2)Nc1cccc2ccccc12 [Compound 7] | 8.815 ± 0.019 | 52.2 ± 0.006 | 15.38 ± 0.071 | 9.495 ± 0.045 | 0.294 | competitive
O=C(/C=C/C=C/c1ccc2c(c1)OCO2)Oc1ccc2ccc(=O)oc2c1 [Compound 13] | 10.7 ± 0.035 | 65.99 ± 0.002 | 24.53 ± 0.002 | 11.35 ± 0.004 | 0.371 | 
CC1CCC(C(C)C)C(OC(=O)/C=C/C=C/c2ccc3c(c2)OCO3)C1 (stereo not drawn) [Compound 11] | 14.15 ± 0.011 | 20.59 ± 0.006 | 33.72 ± 0.071 | 17.57 ± 0.091 | 1.637 | 

Now from value to molecule:

IC50 [1] [µM] | IC50 (hMAO-B) [µM] | IC50 (hMAO-A [2]) [µM] | IC50 [3] [µM] | Selectivity index (hMAO-B) | type of hMAO-A inhibition (hMAO-A [4]) | SMILES
17.15 ± 0.026 | 21.37 ± 0.007 | 32.33 ± 0.043 | 23.76 ± 0.021 | 1.512 |  | Cc1ccc(C(C)C)cc1OC(=O)/C=C/C=C/c1ccc2c(c1)OCO2 [Compound 17a]
16.52 ± 0.012 | 26.44 ± 0.063 | 16.11 ± 0.091 | 15.71 ± 0.014 | 0.609 |  | C=CCc1ccc(OC(=O)/C=C/C=C/c2ccc3c(c2)OCO3)c(OC)c1 [Compound 17c]
8.281 ± 0.001 | 17.9 ± 0.038 | 30 ± 0.005 | 10.09 ± 0.013 | 1.675 |  | COc1cc(C=O)ccc1OC(=O)/C=C/C=C/c1ccc2c(c1)OCO2 [Compound 17b]
